Data published in paper PMC10458307, “New Scaffolds of Proteasome Inhibitors: Boosting Anticancer Potential by Exploiting the Synergy of In Silico and In Vitro Methodologies” (Pharmaceuticals, 2023).
“And” between values parts separate entries of the source, which are not always exact repeats. Identical values can stand only once.

What was measured:
[1] = target: T1, isolated human 20S proteasome, CT-L activity (Homo sapiens, UniProt P20618+P28074); test: Proteasome inhibition assay in isolated human 20S proteasomes (Proteasome-Glo), CT-L activity; format: biochemical; settings: for inhibition at 10 µM: read-out: percentage of proteasome inhibition, CT-L, isolated 20S proteasome; for percentage of proteasome inhibition, CT-L, isolated human 20S proteasome: at 100 µM, Table 1 legend: bortezomib positive control 10 µM
T1 construct: human purified erythrocyte-derived 20S proteasome; purchased Enzo Life Sciences, Inc; host or cells: human erythrocytes (natural source)
Text: (§1) In this assay, the peptide substrates are bound to aminoluciferin (Suc-LLVY-AML for CT-L activity, Z-nLPnLD-AML for C-L, and Z-LRR-AML for T-L), leading the cleavage of these substrates by the proteasome to the release of free aminoluciferin, which is the substrate of the buffer-contained luciferase.
(§2) To evaluate human purified erythrocyte-derived 20S proteasome inhibitory activity of the chosen compounds, the Proteasome-Glo™ 3-substrate system (Promega Corporation, Madison, WI, USA) was employed. The Proteasome-Glo™ reagents of the three proteolytic activities were prepared according to the manufacturer’s instructions, aliquoted, and stored at either −20 °C or 4 °C, avoiding freezing–thaw cycles. […] The purified 20S proteasome (Enzo Life Sciences, Inc., Farmingdale, NY, USA) was diluted in HEPES buffer 10 mM, pH 7.4, to a concentration experimentally adjusted to the signal/noise ratio obtained with each particular lot of Proteasome-Glo™ reagent, in order to have a good compromise between sensitivity and linear response. […] All assays were performed in white-walled multiwell plates (Thermo Scientific™ Sterilin™ White Microtiter™ plates, Thermo Fisher Scientific, Paisley, UK) in duplicates. The proteasome solution (25 μL) was added to each well first, then the diluted solutions of the assayed compounds (25 μL), and lastly the Proteasome-Glo™ Reagent (50 μL). […] Reagents were added to the plate well on ice, and the plate was then transferred to the plate luminometer (SpectraMax®, Molecular Devices, LLC, San Jose, CA, USA) set at 37 °C, gently mixed for 30 s, and the measurements were immediately started in kinetic mode, with data collected every 5 min for at least 60 min.
(§3) All compounds were dissolved in DMSO at a concentration of 10 mM and stored at −20 °C or 4 °C. Solutions of the test compounds were prepared at their adequate dilutions in 10 mM HEPES buffer pH 7.6 before each experiment.
(§4) To calculate the proteasome activity over time, the value of mean relative luminescence units (RLU) of blank wells at each respective time point was subtracted, and then the ratio between mean RLU of the sample and mean RLU of the positive control wells was calculated for each time point and expressed as percentage.

[2] = target: T2, 20S proteasome in HT-29 cell lysates, C-L activity (Homo sapiens, UniProt P28072); test: Proteasome inhibition assay in cell lysates, HT-29, C-L
T2 sequence (P28072 35-239 limits assumed): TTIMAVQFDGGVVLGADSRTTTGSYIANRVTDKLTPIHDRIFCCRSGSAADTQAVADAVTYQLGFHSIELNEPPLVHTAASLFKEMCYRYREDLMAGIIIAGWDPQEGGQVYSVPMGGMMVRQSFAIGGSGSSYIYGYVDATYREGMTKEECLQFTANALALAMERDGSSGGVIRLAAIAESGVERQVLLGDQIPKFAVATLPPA
T2 sequence (Q99436 44-277 partner): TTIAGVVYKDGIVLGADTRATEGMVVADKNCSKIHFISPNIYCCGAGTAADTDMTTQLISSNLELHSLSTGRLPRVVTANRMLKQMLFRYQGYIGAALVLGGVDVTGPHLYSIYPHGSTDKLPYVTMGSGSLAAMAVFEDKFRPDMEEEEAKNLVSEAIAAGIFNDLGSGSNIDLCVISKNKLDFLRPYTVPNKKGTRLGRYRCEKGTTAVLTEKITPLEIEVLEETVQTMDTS
Description: (§5) Cells were obtained from several cultured cell lines: Jurkat, K562, HT-29, and HCT116. Pellets with 20 × 10^6 cells were prepared and washed with cold sterile phosphate buffered saline (PBS), 1×, pH 7.4 (Gibco, Thermo Fisher Scientific, Paisley, UK). […] Cells were resuspended in buffer containing 50 mM TRIS-HCl pH 7.4 (Nzytech, Lisboa, Portugal), 5 mM MgCl2 (≥98% purity, Merck, Hamburg, Germany), 1 mM DTT (Merck, Hamburg, Germany), 2 mM ATP (≥98% purity, Enzo Life Sciences Inc., Farmingdale, NY, USA), and 250 mM saccharose (Merck, Hamburg, Germany). Glass beads (Merck, Hamburg, Germany) equivalent to the volume of the cell suspension were added, and the mixture was vortexed for 2 min at 4 °C. Beads and cell debris were removed using 5 min centrifugation at 1000× g and 4 °C, followed by 20 min of centrifugation at 10,000× g at 4 °C. Cell lysates containing proteasomes were resuspended in “activity buffer” [50 mM TRIS-HCl (pH 7.4), 5 mM MgCl2, 1 mM DTT, 2 mM ATP (≥98% purity, Enzo Life Sciences Inc., Farmingdale, NY, USA), and 500 µM EDTA (≥98% purity, Merck, Hamburg, Germany)]. Protein concentration was determined using the Pierce™ BCA protocol (Thermo Fisher Scientific, Rockford, IL, USA). […] DMSO was added in an equal volume as used for the untreated compounds as a way to assess/control its influence in the assay. Untreated cells were used as control. In each well of a 96-well plate, 25 µL of lysate were seeded in duplicate with 25 µL of the compound to test; in the control, 25 µL of activity buffer were added to the 25 µL of lysate. A blank (50 µL of activity buffer) was added to the wells in quadruplicate. Cell lysates, pre-treated or not with different concentrations of the test compounds, were incubated for 30 min at 37 °C. […] Stock solutions (10 mM) of each substrate were prepared in DMSO, diluted in activity buffer, and 50 µL were added to all wells (final concentration of each substrate = 100 µM), followed by an incubation at 37 °C for 60 min. Samples fluorescence was measured at an excitation wavelength of 360 nm and emission of 465 nm; the fluorescence measures were performed using the GloMax-Multi + Detection System (Promega Corp., Madison, WI, USA). Activity was evaluated in fluorescence units, after being converted to percentage of proteasome inhibition and, whenever possible, expressed as IC50 by plotting the inhibition data of each compound at different concentrations against the log of the concentration of the inhibitor, using the GraphPad Prism software version 7. At least eight different concentrations of the test compounds were used.

[3] = target: T3, 20S proteasome in Jurkat cell lysates, C-L activity (Homo sapiens, UniProt P28072); test: Proteasome inhibition assay in cell lysates, Jurkat, C-L
T3 sequence (P28072 35-239 limits assumed): T2 sequence (P28072 35-239 limits assumed)
T3 sequence (Q99436 44-277 partner): T2 sequence (Q99436 44-277 partner)
Description: as §5

[4] = target: T4, 20S proteasome in HCT116 cell lysates, C-L activity (Homo sapiens, UniProt P28072); test: Proteasome inhibition assay in cell lysates, HCT116, C-L; settings: for percentage of proteasome inhibition, C-L, cell lysates HCT116: at 100 µM
T4 sequence (P28072 35-239 limits assumed): T2 sequence (P28072 35-239 limits assumed)
T4 sequence (Q99436 44-277 partner): T2 sequence (Q99436 44-277 partner)
Description: as §5

[5] = target: T5, isolated human 20S proteasome, C-L activity (Homo sapiens, UniProt P28072+Q99436); test: Proteasome inhibition assay in isolated human 20S proteasomes (Proteasome-Glo), C-L activity; format: biochemical; settings: for inhibition at 10 µM: read-out: percentage of proteasome inhibition, C-L, isolated 20S proteasome; for percentage of proteasome inhibition, C-L, isolated human 20S proteasome: at 100 µM, Table 1 legend: bortezomib positive control 10 µM
T5 construct: human purified erythrocyte-derived 20S proteasome; purchased Enzo Life Sciences, Inc; host or cells: human erythrocytes (natural source)
Text: as §1, §2, §3, §4

[6] = target: T6, 20S proteasome in HT-29 cell lysates, CT-L activity (Homo sapiens, UniProt P28074); test: Proteasome inhibition assay in cell lysates, HT-29, CT-L
T6 sequence (P28074 60-263): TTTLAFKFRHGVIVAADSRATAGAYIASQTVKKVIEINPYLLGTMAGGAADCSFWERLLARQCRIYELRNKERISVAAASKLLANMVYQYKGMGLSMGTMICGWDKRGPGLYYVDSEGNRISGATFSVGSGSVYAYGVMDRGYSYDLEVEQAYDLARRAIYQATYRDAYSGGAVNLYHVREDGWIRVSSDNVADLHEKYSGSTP
T6 sequence (P20618 29-241 partner): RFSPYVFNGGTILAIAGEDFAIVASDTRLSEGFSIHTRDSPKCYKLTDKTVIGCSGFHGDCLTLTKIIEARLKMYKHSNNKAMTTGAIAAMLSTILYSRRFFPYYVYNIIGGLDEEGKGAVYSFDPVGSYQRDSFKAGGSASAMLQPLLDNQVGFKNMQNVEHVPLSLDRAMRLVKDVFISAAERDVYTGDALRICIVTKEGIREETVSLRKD
Description: as §5

[7] = target: T7, 20S proteasome in HCT116 cell lysates, CT-L activity (Homo sapiens, UniProt P28074); test: Proteasome inhibition assay in cell lysates, HCT116, CT-L; settings: for percentage of proteasome inhibition, CT-L, cell lysates HCT116: at 100 µM
T7 sequence (P28074 60-263): T6 sequence (P28074 60-263)
T7 sequence (P20618 29-241 partner): T6 sequence (P20618 29-241 partner)
Description: as §5

[8] = at 100 µM, Table 2 legend: bortezomib 10 µM
[9] = Table 2 legend: bortezomib 10 µM, NI = No inhibition
[10] = Table 2 legend: bortezomib 10 µM

CC(C)C[C@H](NC(=O)[C@H](Cc1ccccc1)NC(=O)c1cnccn1)B(O)O [Bortezomib, bortezomib, reference compound]
inhibition at 10 µM [1]: 91%
percentage of proteasome inhibition, CT-L, isolated human 20S proteasome [1]: 99.92% and 100%
percentage of proteasome inhibition, C-L, cell lysates HT-29 ([2]; at 10 µM): 92.93%
percentage of proteasome inhibition, C-L, cell lysates HT-29 [2, 8]: 99.05% and 99%
percentage of proteasome inhibition, C-L, cell lysates Jurkat ([3]; at 10 µM): 92.00%
percentage of proteasome inhibition, C-L, cell lysates Jurkat [3, 8]: 94.22% and 94%
percentage of proteasome inhibition, C-L, cell lysates HCT-116 ([4]; at 10 µM): 94.21%
percentage of proteasome inhibition, C-L, cell lysates HCT116 [4, 9]: 99%
inhibition at 10 µM [5]: 33.8%
percentage of proteasome inhibition, C-L, isolated human 20S proteasome [5]: 92.80% and 93%
percentage of proteasome inhibition, CT-L, cell lysates HT-29 ([6]; at 10 µM): 97.99%
percentage of proteasome inhibition, CT-L, cell lysates HT-29 [6, 8]: 99.37% and 99%
percentage of proteasome inhibition, CT-L, cell lysates HCT-116 ([7]; at 10 µM): 97.94%
percentage of proteasome inhibition, CT-L, cell lysates HCT116 [7, 10]: 99.14% and 99%

C#CCCN1CCN(c2ccc(-n3c(=O)ccc4cnc5ccc(-c6ccc(N)nc6)cc5c43)cc2C(F)(F)F)CC1 [Compound 4, 9-(6-Aminopyridin-3-yl)-1-(4-(4-(but-3-yn-1-yl)piperazin-1-yl)-3-(trifluoromethyl)phenyl)benzo[h][1,6]naphthyridin-2(1H)-one]
inhibition at 10 µM [1]: 3.3%
percentage of proteasome inhibition, CT-L, isolated human 20S proteasome [1]: 69.90% and 70%
IC50 ([1]; mean ± SD, read-out: IC50, CT-L, isolated human 20S proteasome): 51.1 µM
IC50 [2]: 35.2 µM
percentage of proteasome inhibition, C-L, cell lysates HT-29 [2, 8]: 82%
inhibition at 10 µM ([2]; read-out: percentage of proteasome inhibition, C-L, cell lysates HT-29, at 10 µM): 0%
inhibition at 100 µM ([2]; read-out: percentage of proteasome inhibition, C-L, cell lysates HT-29, at 100 µM, Table 2 legend: bortezomib 10 µM): 82.1%
IC50 [3]: 27 µM
percentage of proteasome inhibition, C-L, cell lysates Jurkat [3, 8]: 99%
inhibition at 10 µM ([3]; read-out: percentage of proteasome inhibition, C-L, cell lysates Jurkat, at 10 µM): 8.16%
inhibition at 100 µM ([3]; read-out: percentage of proteasome inhibition, C-L, cell lysates Jurkat, at 100 µM, Table 2 legend: bortezomib 10 µM): 98.9%
IC50 [4]: 28.9 µM
percentage of proteasome inhibition, C-L, cell lysates HCT116 [4, 9]: 90%
inhibition at 100 µM ([4]; read-out: percentage of proteasome inhibition, C-L, cell lysates HCT116, at 100 µM, Table 2 legend: bortezomib 10 µM, NI = No inhibition): 90.1%
inhibition at 10 µM ([4]; read-out: percentage of proteasome inhibition, C-L, cell lysates HCT-116, at 10 µM): 69.2%
inhibition at 10 µM [5]: 5.8%
percentage of proteasome inhibition, C-L, isolated human 20S proteasome [5]: 77.65% and 78%
IC50 [6]: 31.3 µM
percentage of proteasome inhibition, CT-L, cell lysates HT-29 [6, 8]: 98%
inhibition at 10 µM ([6]; read-out: percentage of proteasome inhibition, CT-L, cell lysates HT-29, at 10 µM): 10.1%
inhibition at 100 µM ([6]; read-out: percentage of proteasome inhibition, CT-L, cell lysates HT-29, at 100 µM, Table 2 legend: bortezomib 10 µM): 97.9%
IC50 [7]: 35.7 µM
percentage of proteasome inhibition, CT-L, cell lysates HCT116 [7, 10]: 98%
inhibition at 100 µM ([7]; read-out: percentage of proteasome inhibition, CT-L, cell lysates HCT116, at 100 µM, Table 2 legend: bortezomib 10 µM): 98%
inhibition at 10 µM ([7]; read-out: percentage of proteasome inhibition, CT-L, cell lysates HCT-116, at 10 µM): 22.1%
